From the supplement of paper PMC12137928
Where a name gives a salt, the structure may show the parent alone.

Tested on: HCT116
Settings: 72 h
How it was run: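 IC50 and maximal efficacy were derived from four-parameter Hill curve fits. The underlying CellTiter-Glo luminescence was scaled so that vehicle equals 0% and positive control equals -100%, and was then pattern-corrected. HCT116 cells had been seeded in 1536-well plates at 250 per well.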

Row | IC50 cell viability (ICRF193 0 nM) | IC50 cell viability (ICRF193 200 nM) | Structure (SMILES)
1 | > 45.8 µM | > 45.8 µM | CCOC(=O)O[C@]1(C(=O)OCCl)CC[C@H]2[C@@H]3CCC4=CC(=O)C=C[C@]4(C)[C@H]3[C@@H](O)C[C@@]21C [Loteprednol etabonate]
2 | > 45.8 µM | > 45.8 µM | CN(C)CCc1c[nH]c2ccc(C[C@H]3COC(=O)N3)cc12 [Zolmitriptan]
3 | > 45.8 µM | > 45.8 µM | OC(CCN1CCCC1)(c1ccccc1)C1CCCCC1 (stereo not drawn) [Procyclidine hydrochloride]
4 | > 45.8 µM | > 45.8 µM | CC[C@H](C)C(=O)O[C@H]1C[C@H](O)C=C2C=C[C@H](C)[C@H](CC[C@@H](O)C[C@@H](O)CC(=O)O)[C@H]21 [Pravastatin]
5 | > 45.8 µM | > 45.8 µM | CCCCC(CC)COC(=O)c1ccc(N(C)C)cc1 (stereo not drawn) [2-Ethylhexyl 4-(dimethylamino)benzoate]
6 | > 45.8 µM | > 45.8 µM | CCN(C(=O)c1c(O)c2c(Cl)cccc2n(C)c1=O)c1ccccc1 [Laquinimod]
7 | > 45.8 µM | > 45.8 µM | CCOc1ccc(Cc2cc([C@]34OC[C@](CO)(O3)[C@@H](O)[C@H](O)[C@H]4O)ccc2Cl)cc1
8 | > 45.8 µM | > 45.8 µM | C[C@]12CC[C@@H]3c4ccc(O)cc4C[C@@H](CCCCCCCCC[S+]([O-])CCCC(F)(F)C(F)(F)F)[C@H]3[C@@H]1CC[C@@H]2O (stereo partly drawn) [Fulvestrant]
9 | > 45.8 µM | > 45.8 µM | O=P(O)(O)OC(Cn1cncn1)(Cn1cncn1)c1ccc(F)cc1F [Fosfluconazole]
10 | > 45.8 µM | > 45.8 µM | Nc1nc(N)nc(-c2cc(Cl)ccc2Cl)n1 [Irsogladine maleate]
11 | > 45.8 µM | > 45.8 µM | C[C@H](Cc1cc2c(c(C(N)=O)c1)N(CCCO)CC2)NCCOc1ccccc1OCC(F)(F)F [Silodosin]
12 | > 45.8 µM | > 45.8 µM | CCCCCCCCCCC[C@@H](C[C@@H]1OC(=O)[C@H]1CCCCCC)OC(=O)[C@H](CC(C)C)NC=O [Orlistat]
13 | > 45.8 µM | > 45.8 µM | NC(=O)CCCCC1CCSS1 (stereo not drawn) [alpha-Lipoic acid amide]
14 | > 45.8 µM | > 45.8 µM | CCCCCOc1ccc(-c2ccc(-c3ccc(C(=O)N[C@H]4C[C@@H](O)[C@@H](O)NC(=O)[C@@H]5[C@@H](O)[C@@H](C)CN5C(=O)[C@H]([C@@H](C)O)NC(=O)[C@H]([C@H](O)[C@@H](O)c5ccc(O)cc5)NC(=O)[C@@H]5C[C@@H](O)CN5C(=O)[C@H]([C@@H](C)O)NC4=O)cc3)cc2)cc1 [Anidulafungin]
15 | > 45.8 µM | > 45.8 µM | O=C1c2ccccc2C(=O)C1c1ccccc1 [Phenindione]
16 | > 45.8 µM | > 45.8 µM | CCCCCCCC(=O)O [Octanoic acid]
17 | > 45.8 µM | > 45.8 µM | CC(C)(C)C(=O)Oc1ccc(S(=O)(=O)Nc2ccccc2C(=O)NCC(=O)O)cc1 [Sivelestat sodium hydrate]
18 | > 45.8 µM | > 45.8 µM | CCCCCCCCCCCCCCCC(=O)OCCC1CCN(CCCN2c3ccccc3Sc3ccc(S(=O)(=O)N(C)C)cc32)CC1 [Pipothiazine palmitate]
19 | > 45.8 µM | > 45.8 µM | Nc1c2c(nc3ccccc13)CCCC2 [Tacrine hydrochloride]
20 | > 45.8 µM | > 45.8 µM | CC(C)NCC(O)c1ccc(NS(C)(=O)=O)cc1 (stereo not drawn) [Sotalol]
21 | > 45.8 µM | > 45.8 µM | OCCN1CCN(CCCN2c3ccccc3C=Cc3ccccc32)CC1 [Opipramol dihydrochloride]
22 | > 45.8 µM | > 45.8 µM | O=C(O)CSCC(=O)NC1CCSC1=O (stereo not drawn) [Erdosteine]
23 | > 45.8 µM | > 45.8 µM | NCCC[C@H](N)C(=O)O [ORNITHINE HYDROCHLORIDE]

Row | Structure (SMILES) | IC50 cell viability (ICRF193 0 nM) | IC50 cell viability (ICRF193 200 nM)
24 | CCNCC(O)c1cccc(O)c1 (stereo not drawn) [Etilefrine hydrochloride] | > 45.8 µM | > 45.8 µM
